Results on 22 compounds are retold here after patent US20260274833A1 (NiKang Therapeutics, Inc., priority 2022, published 2026).

For one assay, the target named is T1, CDK2 (Homo sapiens, UniProt P24941).
T1 construct: endogenous in cells; host or cells: OVCAR3 cells
The experiment in a line: Phospho-RB measurement in OVCAR3 cells (HTRF phospho-RB cellular kit). It is filed as cell-based. To be noted: inhibition of RB phosphorylation at S807/811 (HTRF), 24 h compound treatment. In outline: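 IC50 came from a four-parameter logistic fit of the DMSO-normalized TR-FRET ratio (665/620 nm). That ratio reflects RB phosphorylation at S807/811, read with an HTRF antibody pair 4 h after adding lysate at room temperature.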
In turn, `CC(=O)N1CCN(S(=O)(=O)Nc2cccc(-c3nc(C(C)(C)C)sc3-c3ccnc(NC4CCN(S(C)(=O)=O)CC4)n3)c2F)CC1` [Example 88, 4-acetyl-N-(3-(2-(tert-butyl)-5-(2-((1-(methylsulfonyl)piperidin-4-yl)amino)-pyrimidin-4-yl)thiazol-4-yl)-2-fluoro-phenyl)-piperazine-1-sulfonamide] showed a concentration for half-maximal inhibition (IC50) above 10000 nM.

The assay is the same for the next values; noted with them: inhibition of RB phosphorylation at S807/811 (HTRF, TR-FRET ratio 665/620), 24 h compound treatment, 0.3 to 10,000 nM.
Consider `N#Cc1ccc2c(c1)N(S(=O)(=O)Nc1cccc(-c3nc(C45CC(C4)C5)sc3-c3ccnc(NC4CC5(C4)CS(=O)(=O)C5)n3)c1F)CC2` [Example 9, N-(3-(2-(bicyclo [1.1.1]pentan-1-yl)-5-(2-((2,2-dioxido-2-thiaspiro[3.3]heptan-6-yl)amino)-pyrimidin-4-yl)thiazol-4-yl)-2-fluorophenyl)-6-cyanoindoline-1-sulfonamide], for which the IC50 is 104 nM.
The same measure, in the same setting: the value for `CC(O)c1cccc2c1CCN2S(=O)(=O)Nc1cccc(-c2nc(C(C)(C)C)sc2-c2ccnc(NC3CC4(C3)CS(=O)(=O)C4)n2)c1F` (stereo not shown) [Example 229, N-(3-(2-(tert-butyl)-5-(2-((2,2-dioxido-2-thiaspiro[3.3]heptan-6-yl)amino)-pyrimidin-4-yl)thiazol-4-yl)-2-fluoro-phenyl)-4-(1-hydroxyethyl)-indoline-1-sulfonamide] was 145 nM; that for `CN1CCN(S(=O)(=O)Nc2cccc(-c3nc(C45CC(C4)C5)sc3-c3ccnc(NC4CC5(C4)CS(=O)(=O)C5)n3)c2F)Cc2ccccc21` [Example 275, N-(3-(2-(bicyclo [1.1.1]pentan-1-yl)-5-(2-((2,2-dioxido-2-thiaspiro[3.3]heptan-6-yl)amino)-pyrimidin-4-yl)thiazol-4-yl)-2-fluorophenyl)-1-methyl-1,2,3,5-tetrahydro-4H-benzo[e][1,4]-diazepine-4-sulfonamide] was 339 nM; that for `CC(C)(C)c1nc(-c2cccc(NS(=O)(=O)N3Cc4ccnc(O)c4C3)c2F)c(-c2ccnc(NC3CCN(S(C)(=O)=O)CC3)n2)s1` [Example 239, N-(3-(2-(tert-butyl)-5-(2-((1-(methylsulfonyl)-piperidin-4-yl)amino)-pyrimidin-4-yl)thiazol-4-yl)-2-fluoro-phenyl)-4-hydroxy-1,3-dihydro-2H-pyrrolo[3,4-c] pyridine-2-sulfonamide] was 4690 nM.
On the same count and under the same terms, the value for `CN(C)CCN(C)S(=O)(=O)N1CCC(Nc2nccc(-c3sc(C(C)(C)C)nc3-c3cccc(NS(=O)(=O)N4CCc5c(C#N)cccc54)c3F)n2)CC1` [Example 123, N-(3-(2-(tert-butyl)-5-(2-((1-(N-(2-(dimethylamino)ethyl)-N-methylsulfamoyl)-piperidin-4-yl)amino)-pyrimidin-4-yl)thiazol-4-yl)-2-fluoro-phenyl)-4-cyanoindoline-1-sulfonamide] was 75.2 nM.
The same measure, in the same setting: to `CC(C)(C)c1nc(-c2cccc(NS(=O)(=O)N3Cc4ccncc4C3)c2F)c(-c2ccnc(NC3CCN(S(C)(=O)=O)CC3)n2)s1` [Example 103, N-(3-(2-(tert-butyl)-5-(2-((1-(methylsulfonyl)piperidin-4-yl)amino)-pyrimidin-4-yl)thiazol-4-yl)-2 fluorophenyl)-1,3-dihydro-2H-pyrrolo[3,4-c] pyridine-2-sulfonamide] belongs 142 nM; to `CC(C)(C)c1nc(-c2cccc(NS(=O)(=O)N3CCc4ccc(C(N)=O)cc43)c2F)c(-c2ccnc(NC3CCN(S(C)(=O)=O)CC3)n2)s1` [Example 168, 1-(N-(3-(2-(tert-butyl)-5-(2-((1-(methyl-sulfonyl)piperidin-4-yl)amino)pyrimidin-4-yl)thiazol-4-yl)-2-fluorophenyl)-sulfamoyl)-indoline-6-carboxamide], 1590 nM.
In the case of `CC(C)(C)c1nc(-c2cccc(NS(=O)(=O)N3Cc4cccc(C#N)c4C3)c2F)c(-c2ccnc(NC3CCN(S(C)(=O)=O)CC3)n2)s1` [Example 185, N-(3-(2-(tert-butyl)-5-(2-((1-(methylsulfonyl)-piperidin-4-yl)amino)-pyrimidin-4-yl)thiazol-4-yl)-2-fluoro-phenyl)-4-cyanoisoindoline-2-sulfonamide], the IC50 came to 55 nM.
Regarding `CC(C)(C)c1nc(-c2cccc(NS(=O)(=O)N3Cc4cccc(Oc5ccc(F)cc5)c4C3)c2F)c(-c2ccnc(NC3CC4(C3)CS(=O)(=O)C4)n2)s1` [Example 215, N-(3-(2-(tert-butyl)-5-(2-((2,2-dioxido-2-thiaspiro[3.3]heptan-6-yl)amino)-pyrimidin-4-yl)thiazol-4-yl)-2-fluoro-phenyl)-4-(4-fluoro-phenoxy)-isoindoline-2-sulfonamide], the IC50 came to 601 nM.
The same measure, in the same setting: to `CN(C)CCOc1cccc2c1CN(S(=O)(=O)Nc1cccc(-c3nc(C(C)(C)C)sc3-c3ccnc(NC4CCN(S(C)(=O)=O)CC4)n3)c1F)C2` [Example 150, N-(3-(2-(tert-butyl)-5-(2-((1-(methylsulfonyl)piperidin-4-yl)amino)-pyrimidin-4-yl)thiazol-4-yl)-2-fluoro-phenyl)-4-(2-(dimethylamino)-ethoxy)-isoindoline-2-sulfonamide] belongs 1840 nM; to `CN(C)Cc1cccc2c1CN(S(=O)(=O)Nc1cccc(-c3nc(C(C)(C)C)sc3-c3ccnc(NC4CCN(S(C)(=O)=O)CC4)n3)c1F)C2` [Example 167, N-(3-(2-(tert-butyl)-5-(2-((1-(methylsulfonyl)-piperidin-4-yl)amino)-pyrimidin-4-yl)thiazol-4-yl)-2-fluoro-phenyl)-4-((dimethylamino)-methyl)-isoindoline-2-sulfonamide], 410 nM.
Same read-out and setting: the value for `Cn1c(-c2ccc3c(c2)N(S(=O)(=O)Nc2cccc(-c4nc(C(C)(C)C)sc4-c4ccnc(NC5CC6(C5)CS(=O)(=O)C6)n4)c2F)CC3)cccc1=O` [Example 220, N-(3-(2-(tert-butyl)-5-(2-((2,2-dioxido-2-thiaspiro[3.3]heptan-6-yl)amino)-pyrimidin-4-yl)thiazol-4-yl)-2-fluoro-phenyl)-6-(1-methyl-6-oxo-1,6-dihydropyridin-2-yl)indoline-1-sulfonamide] was 802 nM.
Same read-out and setting: the value for `O=S1(=O)CC2(CC(Nc3nccc(-c4sc(C56CC(C5)C6)nc4-c4cccc(NS(=O)(=O)N5CCc6ccncc65)c4F)n3)C2)C1` [Example 264, N-(3-(2-(bicyclo [1.1.1]pentan-1-yl)-5-(2-((2,2-dioxido-2-thiaspiro[3.3]heptan-6-yl)amino)-pyrimidin-4-yl)thiazol-4-yl)-2-fluorophenyl)-2,3-dihydro-1H-pyrrolo[2,3-c]pyridine-1-sulfonamide] was 1830 nM; that for `O=S1(=O)CC2(CC(Nc3nccc(-c4sc(C56CC(C5)C6)nc4-c4cccc(NS(=O)(=O)N5C6CCC5CC(F)(F)C6)c4F)n3)C2)C1` [Example 266, N-(3-(2-(bicyclo [1.1.1]pentan-1-yl)-5-(2-((2,2-dioxido-2-thiaspiro[3.3]heptan-6-yl)amino)-pyrimidin-4-yl)thiazol-4-yl)-2-fluorophenyl)-3,3-difluoro-8-azabicyclo-[3.2.1]octane-8-sulfonamide] was 8470 nM; that for `COc1ccc2c(c1)CN(S(=O)(=O)Nc1cccc(-c3nc(C(C)(C)C)sc3-c3ccnc(NC4CCN(S(=O)(=O)N5CCNCC5)CC4)n3)c1F)C2` [Example 119, N-(3-(2-(tert-butyl)-5-(2-((1-(piperazin-1-ylsulfonyl)piperidin-4-yl)amino)-pyrimidin-4-yl)thiazol-4-yl)-2-fluoro-phenyl)-5-methoxy-isoindoline-2-sulfonamide] was 397 nM.
Turning to `CNC(=O)c1ccc2c(c1)N(S(=O)(=O)Nc1cccc(-c3nc(C(C)(C)C)sc3-c3ccnc(NC4CCN(S(C)(=O)=O)CC4)n3)c1F)CC2` [Example 151, 1-(N-(3-(2-(tert-butyl)-5-(2-((1-(methyl-sulfonyl)piperidin-4-yl)amino)pyrimidin-4-yl)thiazol-4-yl)-2-fluorophenyl)-sulfamoyl)-N-methylindoline-6-carboxamide], the IC50 stood at 355 nM.
Still for that read-out and setting: to `CNCc1ccc2c(c1)CCN2S(=O)(=O)Nc1cccc(-c2nc(C(C)(C)C)sc2-c2ccnc(NC3CCN(S(C)(=O)=O)CC3)n2)c1F` [Example 159, N-(3-(2-(tert-butyl)-5-(2-((1-(methylsulfonyl)-piperidin-4-yl)amino)-pyrimidin-4-yl)thiazol-4-yl)-2-fluoro-phenyl)-5-((methylamino)methyl)-indoline-1-sulfonamide] belongs 4080 nM; to `Cn1ncc2c1CN(S(=O)(=O)Nc1cccc(-c3nc(C(C)(C)C)sc3-c3ccnc(Nc4ccc(N5CCNCC5)cc4)n3)c1F)C2` [Example 251], 1530 nM; to `CC(C)(C)c1nc(-c2cccc(NS(=O)(=O)N3CCc4ccccc4C3)c2F)c(-c2ccnc(NC3CCN(S(=O)(=O)N4CCNCC4)CC3)n2)s1` [Example 114, N-(3-(2-(tert-butyl)-5-(2-((1-(piperazin-1-ylsulfonyl)piperidin-4-yl)amino)-pyrimidin-4-yl)thiazol-4-yl)-2-fluoro-phenyl)-3,4-dihydro-isoquinoline-2(1H)-sulfonamide], 276 nM.
On to `CS(=O)(=O)[C@H]1CC[C@H](Nc2nccc(-c3sc(C45CC(C(F)(F)F)(C4)C5)nc3-c3cccc(NS(=O)(=O)N4CCc5ccc(Cl)cc54)c3F)n2)CC1` [Example 54, 6-chloro-N-(2-fluoro-3-(5-(2-(((1r,4r)-4-(methylsulfonyl)cyclohexyl)amino)pyrimidin-4-yl)-2-(3-(trifluoromethyl)bicyclo-[1.1.1]-pentan-1-yl)thiazol-4-yl)phenyl)-indoline-1-sulfonamide], for which the IC50 was determined as 382 nM.
Same read-out and setting: the value for `CN1CC2CCC(C1)N2c1nc(-c2cccc(NS(=O)(=O)N3CCc4ccc(Cl)cc43)c2F)c(-c2ccnc(NC3CC4(C3)CS(=O)(=O)C4)n2)s1` [Example 43, 6-chloro-N-(3-(5-(2-((2,2-dioxido-2-thiaspiro[3.3]heptan-6-yl)amino)-pyrimidin-4-yl)-2-(3-methyl-3,8-diazabicyclo [3.2.1]octan-8-yl)thiazol-4-yl)-2-fluorophenyl) indoline-1-sulfonamide] was 27.1 nM.
